Tests used:
[1] = Enzyme activity of PEG-XO: formation of uric acid from hypoxanthine (absorbance at 290 nm); type: biochemical; conditions: for XO activity: 50 μM hypoxanthine, 50 mM sodium phosphate buffer pH 7.4, room temperature; for enzyme activity compared with native XO: relative to native XO
Description: The enzyme activity was determined by quantifying the formation of uric acid from hypoxanthine by measuring the increase of absorbance at 290 nm, an absorption maximum of uric acid. The initial concentration of the substrate hypoxanthine was 50 μM. The enzyme reaction was carried out in 50 mM sodium phosphate buffer (pH 7.4) at room temperature. One unit of XO activity is defined as the velocity of the formation of 1 μmol of uric acid per min.

[2] = Time course of tumor accumulation of PEG-XO-high (XO activity in tumor homogenate, pterin substrate); type: in vivo, ddY mice
Description: The time course of the tumor accumulation of PEG-XO-high was examined by measuring the enzyme activity derived from PEG-XO-high in the tumor tissue. Tumor bearing mice were prepared as described above. PEG-XO-high (2 U/ml, 100 μl) was injected intravenously (i.v.) to the mice. After a given period, the tumor tissue was removed as described above. The tumor tissue was then homogenized with three volumes of 20 mM potassium phosphate buffer pH 7.6 which contained 2 mM ethylenediaminetetraacetic acid, 2 mM amidinophenylmethanesulfonyl fluoride, 10 mM dithiothreitol, 0.5 μg/ml of leupeptin. The homogenates were centrifuged at 10,000 g for 20 min, and each supernatant was applied to a FPLC system with a Superose 6 HR 10/30 column similar to the previous section. The enzyme activity of the PEG-XO-high fraction was determined fluorometrically, i.e., the formation of fluorescent isoxanthopterin from pterin was measured with an excitation at 345 nm and an emission at 390 nm, in which hypoxanthine was replaced with pterin as substrate. The quantification was made using the calibration curve of the authentic isoxanthopterin (Aldrich Chemical, Milwaukee, Wis.).

S-180 solid tumor = test: Antitumor activity of PEG-XO in vivo with hypoxanthine; parameters: species or system ddY mice; conditions: for suppression of the tumor growth: FIG. 1
Description: When the tumors became palpable (5-7 mm in diameter), usually 7 days after implantation, the treatment was resumed.
Hypoxanthine (13.3 mg/kg) was injected intraperitoneally six times, each time more than 6 hrs after the last time, as indicated by asterisks (*) in the FIG. 1 to 3.

[3] = Systemic side effect of PEG-XO-high/hypoxanthine; type: in vivo; conditions: PEG-XO/hypoxanthine therapy
[4] = Bray and Swann 1972; confirmed by the inventors; cited from earlier work
S180 solid tumor = test: Antitumor effect of PEG-DAO on S180 solid tumor model; type: in vivo, ddY mice; conditions: 1.5 U i.v. day 7, D-proline 0.5 mmol i.p. 2 and 4 hrs after; FIG. 10
Description: S180 cells (2×10^6 cells) were inoculated subcutaneously to ddY mice. Seven days after tumor inoculation, mice were injected i.v. with 1.5 U of native DAO or PEG-DAO followed by D-proline 0.5 mmol, i.p. (2 and 4 hrs after DAO administration).
In the FIG. 10, —●— indicates the result of treated mice by administration of PEG-DAO by […]. injection with D-proline, and —▴— indicates the result of administration of native DAO similarly with D-proline. —◯— indicates the result of control mice without any drug treatment Data are means (n=4-8)±SE (standard error). […] Thus, in vivo activity of PEG-DAO is excellent.

[5] = 2 administrations 0.6 U/mouse, hypoxanthine 13.3 mg/kg i.p.
[6] = 15 days after tumor inoculation, 2 times 0.6 U/mouse i.v. (day 7, 9), hypoxanthine 13.3 mg/kg i.p. six times

Substance	XO activity [1] [U/mg protein]	enzyme activity compared with native XO [1] [%]	suppression of the tumor growth (S-180 solid tumor; [5])	weight of tumor (S-180 solid tumor; [6]) [g]	other results
PEG-XO-high: Xanthine oxidase conjugated with succinimide activated-PEG (Mw 5000), 49% of amino groups modified	1.15	54	significant (p<0.05) suppression of the tumor growth	0.22 ± 0.05	XO activity in S-180 solid tumor tissue after injection ([2]; 0.2 U/mouse i.v., 24 hrs, FIG. 6B): a new large peak of XO activity was observed; PEG-XO-high activity in tumor over time ([2]; FIG. 7): increased in a time dependent manner; antitumor activity (S-180 solid tumor; 3 administrations 0.6 U/mouse, hypoxanthine 13.3 mg/kg i.p., FIG. 2): remarkable antitumor activity; weight of tumor (S-180 solid tumor; 13 days after tumor inoculation, 3 times 0.6 U/mouse i.v. (day 7, 8, 9), hypoxanthine 13.3 mg/kg i.p. 6 times): 0.13 ± 0.08 g; inhibition of tumor growth (S-180 solid tumor; day 13, 3 administrations 0.6 U/mouse, hypoxanthine 13.3 mg/kg i.p.): 77%; inhibition of the tumor growth (S-180 solid tumor; day 15, 2 administrations 0.6 U/mouse, hypoxanthine 13.3 mg/kg i.p.): 39%
PEG-XO: Chemically conjugated XO with poly(ethylene glycol); generic term, in vivo work used PEG-XO-high					hematotoxicity or liver toxicity [3]: No serious or significant hematotoxicity or liver toxicity
xanthine oxidase [Native-XO]	2.12		no significant reduction of the tumor growth	0.31 ± 0.03	antitumor effect of native XO (literature) [4]: insignificant
D-amino acid oxidase [native DAO]					suppression of the tumor growth (S180 solid tumor): no significant reduction of the tumor growth
PEG-XO-low: Xanthine oxidase conjugated with succinimide activated-PEG (Mw 5000), 17% of amino groups modified	2.40	110			

Reference: patent US7514076B2, “Antitumor agents” (priority 1997, dated 2009)
